Laboratory results: patent publication US20070093520A1, “Method of treatment of diarrhea-predominant irritable bowel syndrome in a subject” (priority 2005, published 2007)

System: diarrhea-predominant IBS subjects
Assay: 3007 Study: open-label 52-week safety study, adverse events and withdrawals

Cc1nccn1C[C@H]1CCc2c(c3cccc4c3n2CCC4)C1=O [cilansetron, (R)-(−)-4,5,6,8,9,10-hexahydro-10-[(2-methyl-1H-imidazol-1-yl)methyl]-11H-pyrido-[3,2,1-jk]-carbazol-11-one]
TEAE: Sexual Desire Disorders (P/C group): 1 (<1%) n (%)
TEAE: Sick Sinus Syndrome (P/C group): 1 (<1%) n (%)
TEAE: Sinus Arrhythmia (P/C group): 1 (<1%) n (%)
TEAE: Sinus Congestion (P/C group): 3 (1%) n (%)
TEAE: Skin Disorder NOS (P/C group): 1 (<1%) n (%)
TEAE: Skin Injuries and Mechanical Dermatoses (P/C group): 2 (<1%) n (%)
TEAE: Skin Lesion NOS (P/C group): 2 (<1%) n (%)
TEAE: Skin Neoplasms Benign (P/C group): 1 (<1%) n (%)
TEAE: Skin Neoplasms Malignant and Unspecified (Excl Melanoma) (P/C group): 4 (1%) n (%)
TEAE: Skin Ulcer (P/C group): 1 (<1%) n (%)
TEAE: Skin and Subcutaneous Tissue Disorders (P/C group): 25 (9%) n (%)
TEAE: Skin and Subcutaneous Tissue Ulcerations (P/C group): 1 (<1%) n (%)
TEAE: Social Circumstances (P/C group): 1 (<1%) n (%)
TEAE: Soft Tissue Neoplasms Benign NEC (P/C group): 0 n (%)
TEAE: Strabismus (P/C group): 1 (<1%) n (%)
TEAE: Stress Incontinence (P/C group): 0 n (%)
TEAE: Stress Symptoms (P/C group): 1 (<1%) n (%)
TEAE: Structural and Other Bile Duct Disorders (P/C group): 1 (<1%) n (%)
TEAE: Sugar Intolerance (Excl Glucose Intolerance) (P/C group): 1 (<1%) n (%)
TEAE: Suicidal Ideation (P/C group): 1 (<1%) n (%)
TEAE: Suicidal and Self-Injurious Behaviour (P/C group): 1 (<1%) n (%)
TEAE: Supraventricular Arrhythmias (P/C group): 3 (1%) n (%)
TEAE: Supraventricular Tachycardia (P/C group): 1 (<1%) n (%)
TEAE: Surgical and Medical Procedures (P/C group): 1 (<1%) n (%)
TEAE: Sweating Increased (P/C group): 2 (<1%) n (%)
TEAE: Swelling Face (P/C group): 1 (<1%) n (%)
TEAE: Tachycardia NOS (P/C group): 0 n (%)
TEAE: Tenderness NOS (P/C group): 1 (<1%) n (%)
TEAE: Thrombocytopenia (P/C group): 1 (<1%) n (%)
TEAE: Thrombocytopenias (P/C group): 1 (<1%) n (%)
TEAE: Thrombophlebitis Superficial (P/C group): 1 (<1%) n (%)
TEAE: Thyroid Disorders NEC (P/C group): 0 n (%)
TEAE: Thyroid Hypofunction Disorders (P/C group): 1 (<1%) n (%)
TEAE: Thyroid Neoplasms (P/C group): 1 (<1%) n (%)
TEAE: Thyroid Nodule (P/C group): 1 (<1%) n (%)
TEAE: Tinnitus (P/C group): 0 n (%)
TEAE: Total Fluid Volume Decreased (P/C group): 1 (<1%) n (%)
TEAE: Tympanic Membrane Disorder NOS (P/C group): 1 (<1%) n (%)
TEAE: Tympanic Membrane Disorders (Excl Infections) (P/C group): 1 (<1%) n (%)
TEAE: Upper Respiratory Tract Signs and Symptoms (P/C group): 4 (1%) n (%)
TEAE: Urinary Abnormalities (P/C group): 1 (<1%) n (%)
TEAE: Urinary Frequency (P/C group): 1 (<1%) n (%)
TEAE: Urinary Incontinence (P/C group): 0 n (%)
TEAE: Urinary Retention (P/C group): 0 n (%)
TEAE: Urinary Tract Lithiasis (Excl Renal) (P/C group): 0 n (%)
TEAE: Urinary Tract Signs and Symptoms NEC (P/C group): 1 (<1%) n (%)
TEAE: Urine Abnormal NOS (P/C group): 0 n (%)
TEAE: Urticaria NOS (P/C group): 2 (<1%) n (%)
TEAE: Urticarias (P/C group): 2 (<1%) n (%)
TEAE: Uterine Disorders NEC* (P/C group): 0 n (%)
TEAE: Uterine Fibroids* (P/C group): 0 n (%)
TEAE: Uterine Neoplasms Benign* (P/C group): 0 n (%)
TEAE: Uterine Neoplasms* (P/C group): 0 n (%)
TEAE: Uterine Polyp NOS* (P/C group): 0 n (%)
TEAE: Vaginal Cyst* (P/C group): 0 n (%)
TEAE: Vaginal Lesion* (P/C group): 0 n (%)
TEAE: Varicose Vein Ruptured (P/C group): 0 n (%)
TEAE: Varicose Veins Non-Site Specific (P/C group): 0 n (%)
TEAE: Vascular Disorders (P/C group): 8 (3%) n (%)
TEAE: Vascular Hypertensive Disorders NEC (P/C group): 7 (3%) n (%)
TEAE: Vascular Hypotensive Disorders (P/C group): 1 (<1%) n (%)
TEAE: Ventricular Arrhythmias and Cardiac Arrest (P/C group): 1 (<1%) n (%)
TEAE: Ventricular Extrasystoles (P/C group): 0 n (%)
TEAE: Vertigo (P/C group): 1 (<1%) n (%)
TEAE: Visual Acuity Reduced (P/C group): 1 (<1%) n (%)
TEAE: Vitreous Disorder NOS (P/C group): 1 (<1%) n (%)
TEAE: Vulvovaginal Cysts and Neoplasms* (P/C group): 0 n (%)
TEAE: Vulvovaginal Dryness* (P/C group): 2 (1%) n (%)
TEAE: Vulvovaginal Signs and Symptoms* (P/C group): 2 (1%) n (%)
TEAE: Wheezing (P/C group): 0 n (%)
TEAE: Abdominal Discomfort (Placebo/Cilansetron 2 mg): 0 n (%)
TEAE: Abdominal Distension (Placebo/Cilansetron 2 mg): 6 (2%) n (%)
TEAE: Abdominal Pain Aggravated (Placebo/Cilansetron 2 mg): 0 n (%)
TEAE: Abdominal Pain Lower (Placebo/Cilansetron 2 mg): 6 (2%) n (%)
TEAE: Abdominal Pain NOS (Placebo/Cilansetron 2 mg): 21 (8%) n (%)
TEAE: Abdominal Pain Upper (Placebo/Cilansetron 2 mg): 4 (1%) n (%)
TEAE: Abdominal Rebound Tenderness (Placebo/Cilansetron 2 mg): 0 n (%)
TEAE: Abdominal Tenderness (Placebo/Cilansetron 2 mg): 4 (1%) n (%)
TEAE: Abnormal Reflexes (Placebo/Cilansetron 2 mg): 0 n (%)
TEAE: Alanine Aminotransferase Increased (Placebo/Cilansetron 2 mg): 6 (2%) n (%)
TEAE: Anal and Rectal Disorders NEC (Placebo/Cilansetron 2 mg): 1 (<1%) n (%)
TEAE: Anal and Rectal Pains (Placebo/Cilansetron 2 mg): 4 (1%) n (%)
TEAE: Anal and Rectal Signs and Symptoms (Placebo/Cilansetron 2 mg): 3 (1%) n (%)
TEAE: Animal Bite (Placebo/Cilansetron 2 mg): 1 (<1%) n (%)
TEAE: Appendicitis (Placebo/Cilansetron 2 mg): 0 n (%)
TEAE: Arthralgia (Placebo/Cilansetron 2 mg): 3 (1%) n (%)
TEAE: Arthritis NOS (Placebo/Cilansetron 2 mg): 0 n (%)
TEAE: Arthritis NOS Aggravated (Placebo/Cilansetron 2 mg): 0 n (%)
TEAE: Arthropathies NEC (Placebo/Cilansetron 2 mg): 1 (<1%) n (%)
TEAE: Arthropod Bite (Placebo/Cilansetron 2 mg): 1 (<1%) n (%)
TEAE: Arthropod Sting (Placebo/Cilansetron 2 mg): 1 (<1%) n (%)
TEAE: Aspartate Aminotransferase Increased (Placebo/Cilansetron 2 mg): 3 (1%) n (%)
TEAE: Back Injury NOS (Placebo/Cilansetron 2 mg): 0 n (%)
TEAE: Back Pain (Placebo/Cilansetron 2 mg): 6 (2%) n (%)
TEAE: Back Pain Aggravated (Placebo/Cilansetron 2 mg): 1 (<1%) n (%)
TEAE: Bacteria Identification and Serology (Excl Mycobacteria) (Placebo/Cilansetron 2 mg): 0 n (%)
TEAE: Bilirubin Urine (Placebo/Cilansetron 2 mg): 0 n (%)
TEAE: Bladder Infection NOS (Placebo/Cilansetron 2 mg): 1 (<1%) n (%)
TEAE: Blood Alkaline Phosphatase NOS Increased (Placebo/Cilansetron 2 mg): 1 (<1%) n (%)
TEAE: Blood Bilirubin Increased (Placebo/Cilansetron 2 mg): 2 (<1%) n (%)
TEAE: Blood Cholesterol Increased (Placebo/Cilansetron 2 mg): 8 (3%) n (%)
TEAE: Blood Creatine Phosphokinase Increased (Placebo/Cilansetron 2 mg): 8 (3%) n (%)
TEAE: Blood Creatine Phosphokinase Mb Increased (Placebo/Cilansetron 2 mg): 0 n (%)
TEAE: Blood Creatinine Increased (Placebo/Cilansetron 2 mg): 3 (1%) n (%)
TEAE: Blood Glucose Increased (Placebo/Cilansetron 2 mg): 0 n (%)
TEAE: Blood Potassium Increased (Placebo/Cilansetron 2 mg): 0 n (%)
TEAE: Blood Pressure Increased (Placebo/Cilansetron 2 mg): 2 (<1%) n (%)
TEAE: Blood Sodium Increased (Placebo/Cilansetron 2 mg): 0 n (%)
TEAE: Blood Triglycerides Increased (Placebo/Cilansetron 2 mg): 4 (1%) n (%)
TEAE: Blood Uric Acid Increased (Placebo/Cilansetron 2 mg): 0 n (%)
TEAE: Blood Urine Present (Placebo/Cilansetron 2 mg): 4 (1%) n (%)
TEAE: Blood in Stool (Placebo/Cilansetron 2 mg): 4 (1%) n (%)
TEAE: Bone Density Decreased (Placebo/Cilansetron 2 mg): 1 (<1%) n (%)
TEAE: Bone Disorder NOS (Placebo/Cilansetron 2 mg): 0 n (%)
TEAE: Bone Disorders NEC (Placebo/Cilansetron 2 mg): 2 (<1%) n (%)
TEAE: Bone Injury (Placebo/Cilansetron 2 mg): 0 n (%)
TEAE: Bone Spur (Placebo/Cilansetron 2 mg): 1 (<1%) n (%)
TEAE: Bronchitis Acute NOS (Placebo/Cilansetron 2 mg): 1 (<1%) n (%)
TEAE: Bronchitis NOS (Placebo/Cilansetron 2 mg): 5 (2%) n (%)
TEAE: Bronchopneumonia NOS (Placebo/Cilansetron 2 mg): 1 (<1%) n (%)
TEAE: Bunion (Placebo/Cilansetron 2 mg): 0 n (%)
TEAE: Bursal Disorders (Placebo/Cilansetron 2 mg): 3 (1%) n (%)
TEAE: Bursitis (Placebo/Cilansetron 2 mg): 2 (<1%) n (%)
TEAE: Candida Infections (Placebo/Cilansetron 2 mg): 2 (<1%) n (%)
TEAE: Candidal Infection NOS (Placebo/Cilansetron 2 mg): 1 (<1%) n (%)
TEAE: Carbohydrate Tolerance Analyses (Incl Diabetes) (Placebo/Cilansetron 2 mg): 0 n (%)
TEAE: Cardiac Auscultatory Investigations (Placebo/Cilansetron 2 mg): 0 n (%)
TEAE: Cardiac Murmur NOS (Placebo/Cilansetron 2 mg): 0 n (%)
TEAE: Carotid Bruit (Placebo/Cilansetron 2 mg): 1 (<1%) n (%)
TEAE: Carpal Tunnel Syndrome (Placebo/Cilansetron 2 mg): 1 (<1%) n (%)
TEAE: Cartilage Disorder NOS (Placebo/Cilansetron 2 mg): 0 n (%)
TEAE: Cartilage Disorders (Placebo/Cilansetron 2 mg): 0 n (%)
TEAE: Cellulitis (Placebo/Cilansetron 2 mg): 1 (<1%) n (%)
TEAE: Cervical Spasm (Placebo/Cilansetron 2 mg): 0 n (%)
TEAE: Change in Bowel Habit NOS (Placebo/Cilansetron 2 mg): 1 (<1%) n (%)
TEAE: Chapped Lips (Placebo/Cilansetron 2 mg): 1 (<1%) n (%)
TEAE: Chest Wall Pain (Placebo/Cilansetron 2 mg): 2 (<1%) n (%)
TEAE: Cholesterol Analyses (Placebo/Cilansetron 2 mg): 8 (3%) n (%)
TEAE: Colitis (Excl Infective) (Placebo/Cilansetron 2 mg): 1 (<1%) n (%)
TEAE: Colitis Ischaemic (Placebo/Cilansetron 2 mg): 1 (<1%) n (%)
TEAE: Colonic Polyp (Placebo/Cilansetron 2 mg): 0 n (%)
TEAE: Connective Tissue Disorders (Excl Le) (Placebo/Cilansetron 2 mg): 2 (<1%) n (%)
TEAE: Constipation (Placebo/Cilansetron 2 mg): 62 (22%) n (%)
TEAE: Cystitis NOS (Placebo/Cilansetron 2 mg): 0 n (%)
TEAE: Dental Disorders NEC (Placebo/Cilansetron 2 mg): 0 n (%)
TEAE: Dental Infections - Pathogen Class Unspecified (Placebo/Cilansetron 2 mg): 2 (<1%) n (%)
TEAE: Dental Pain and Sensation Disorders (Placebo/Cilansetron 2 mg): 1 (<1%) n (%)
TEAE: Diaphragmatic Hernias (Placebo/Cilansetron 2 mg): 0 n (%)
TEAE: Diarrhoea (Excl Infective) (Placebo/Cilansetron 2 mg): 15 (5%) n (%)
TEAE: Diarrhoea Aggravated (Placebo/Cilansetron 2 mg): 2 (<1%) n (%)
TEAE: Diarrhoea Haemorrhagic (Placebo/Cilansetron 2 mg): 2 (<1%) n (%)
TEAE: Diarrhoea NOS (Placebo/Cilansetron 2 mg): 9 (3%) n (%)
TEAE: Disturbances in Consciousness NEC (Placebo/Cilansetron 2 mg): 1 (<1%) n (%)
TEAE: Diverticulitis NOS (Placebo/Cilansetron 2 mg): 1 (<1%) n (%)
TEAE: Diverticulum Inflammations (Placebo/Cilansetron 2 mg): 1 (<1%) n (%)
TEAE: Dizziness (Placebo/Cilansetron 2 mg): 2 (<1%) n (%)
TEAE: Dry Mouth (Placebo/Cilansetron 2 mg): 1 (<1%) n (%)
TEAE: Dysarthria (Placebo/Cilansetron 2 mg): 1 (<1%) n (%)
TEAE: Dyskinesias and Movement Disorders NEC (Placebo/Cilansetron 2 mg): 1 (<1%) n (%)
TEAE: Dyspepsia (Placebo/Cilansetron 2 mg): 7 (3%) n (%)
TEAE: Dyspepsia Aggravated (Placebo/Cilansetron 2 mg): 0 n (%)
TEAE: Dyspeptic Signs and Symptoms (Placebo/Cilansetron 2 mg): 7 (3%) n (%)
TEAE: ECG Investigations (Placebo/Cilansetron 2 mg): 1 (<1%) n (%)
TEAE: Ear Infection NOS (Placebo/Cilansetron 2 mg): 2 (<1%) n (%)
TEAE: Ear Infections (Placebo/Cilansetron 2 mg): 3 (1%) n (%)
TEAE: Electrocardiogram Qrs Complex Abnormal (Placebo/Cilansetron 2 mg): 0 n (%)
TEAE: Electrocardiogram T Wave Inversion (Placebo/Cilansetron 2 mg): 1 (<1%) n (%)
TEAE: Enteritis (Placebo/Cilansetron 2 mg): 1 (<1%) n (%)
TEAE: Epigastric Discomfort (Placebo/Cilansetron 2 mg): 1 (<1%) n (%)
